In US5674979A, “Agent for inhibiting symmetrical proteins, in particular enzymes” (priority 1989, dated 1997):
Where two headings read alike, the source gives them in different places.

Legend:
HIV-1 [1] = conditions: H9 cells
Protocol: Compounds (a), (b), (c), (d) were tested in the molarity range from 0.1 μM to 1000 μM. Infectivity tests were carried out as follows: an HIV-1 suspension containing 10^2 infectious units was absorbed on to 5×10^6 H9 cells in a volume of 1 ml for 2 hours at 4° C. After this time, 9 ml of tissue culture medium with the required inhibitor concentration was added. The medium was exchanged with fresh medium plus inhibitor daily. Two control cultures were also prepared, one without inhibitor to determine the normal virus replication rate, the other containing inhibitor but no virus, to determine whether the substances were cytotoxic for H9 cells. […] The amount of virus antigen produced by the infected cells was measured daily using Elisa for eight days, indicating the amount of HIV-1 antigen in the tissue culture medium. After this, the cells were pelleted, washed in medium without inhibitor, and further incubated in inhibitor-less medium. The antigen production was measured on days 9 and 12 (ie 1 and […] after removal of the inhibitor). Virus production was also measured on days 7, 8, 9, and 12 by determining the amount of reverse transcriptase in the supernatant of the cell medium.

HIV-1 [2] = tested on: HIV-1
Protocol: Infectivity tests were carried out as follows: an HIV-1 suspension containing 10^2 infectious units was absorbed on to 5×10^6 H9 cells in a volume of 1 ml for 2 hours at 4° C. After this time, 9 ml of tissue culture medium with the required inhibitor concentration was added. The medium was exchanged with fresh medium plus inhibitor daily. Two control cultures were also prepared, one without inhibitor to determine the normal virus replication rate, the other containing inhibitor but no virus, to determine whether the substances were cytotoxic for H9 cells. […] The amount of virus antigen produced by the infected cells was measured daily using Elisa for eight days, indicating the amount of HIV-1 antigen in the tissue culture medium. After this, the cells were pelleted, washed in medium without inhibitor, and further incubated in inhibitor-less medium. The antigen production was measured on days 9 and 12 (ie 1 and 3 days after removal of the inhibitor). Virus production was also measured on days 7, 8, 9, and 12 by determining the amount of reverse transcriptase in the supernatant of the cell medium.

[3] = 0,1 μM, day 9 post infection, no inhibitor (after removal)
[4] = 0,1 μM, day 12 post infection, no inhibitor (after removal)
[5] = 1 μM, day 9 post infection, no inhibitor (after removal)
[6] = 1 μM, day 12 post infection, no inhibitor (after removal)
[7] = 10 μM, day 9 post infection, no inhibitor (after removal)
[8] = 10 μM, day 12 post infection, no inhibitor (after removal)
[9] = 100 μM, day 9 post infection, no inhibitor (after removal)
[10] = 100 μM, day 12 post infection, no inhibitor (after removal)
[11] = 1000 μM, day 9 post infection, no inhibitor (after removal)
[12] = 1000 μM, day 12 post infection, no inhibitor (after removal)

CC(C)C[C@H](NC(=O)OC(C)(C)C)C(=O)NCC(O)CC(=O)O (stereo partly drawn) [B, t-BOC-L-Leu-NH--CH2 --CHOH--CH2 --COOH]
HIV-1 antigen production as measured in antigen capture ELISA (HIV-1 [1]; 0,1 μM, day 1 post infection): 0,061 o. D.
HIV-1 antigen production as measured in antigen capture ELISA (HIV-1 [1]; 0,1 μM, day 2 post infection): 0,063 o. D.
HIV-1 antigen production as measured in antigen capture ELISA (HIV-1 [1]; 0,1 μM, day 3 post infection): 0,039 o. D.
HIV-1 antigen production as measured in antigen capture ELISA (HIV-1 [1]; 0,1 μM, day 4 post infection): 0,063 o. D.
HIV-1 antigen production as measured in antigen capture ELISA (HIV-1 [1]; 0,1 μM, day 5 post infection): 0,055 o. D.
HIV-1 antigen production as measured in antigen capture ELISA (HIV-1 [1]; 0,1 μM, day 6 post infection): 0,149 o. D.
HIV-1 antigen production as measured in antigen capture ELISA (HIV-1 [1]; 0,1 μM, day 7 post infection): 0,389 o. D.
HIV-1 antigen production as measured in antigen capture ELISA (HIV-1 [1]; 0,1 μM, day 8 post infection): 0,232 o. D.
HIV-1 antigen production as measured in antigen capture ELISA (HIV-1 [1]; [3]): 0,700 o. D.
HIV-1 antigen production as measured in antigen capture ELISA (HIV-1 [1]; [4]): 1,047 o. D.
HIV-1 antigen production as measured in antigen capture ELISA (HIV-1 [1]; 1 μM, day 1 post infection): 0,063 o. D.
HIV-1 antigen production as measured in antigen capture ELISA (HIV-1 [1]; 1 μM, day 2 post infection): 0,060 o. D.
HIV-1 antigen production as measured in antigen capture ELISA (HIV-1 [1]; 1 μM, day 3 post infection): 0,061 o. D.
HIV-1 antigen production as measured in antigen capture ELISA (HIV-1 [1]; 1 μM, day 4 post infection): 0,050 o. D.
HIV-1 antigen production as measured in antigen capture ELISA (HIV-1 [1]; 1 μM, day 5 post infection): 0,052 o. D.
HIV-1 antigen production as measured in antigen capture ELISA (HIV-1 [1]; 1 μM, day 6 post infection): 0,105 o. D.
HIV-1 antigen production as measured in antigen capture ELISA (HIV-1 [1]; 1 μM, day 7 post infection): 0,186 o. D.
HIV-1 antigen production as measured in antigen capture ELISA (HIV-1 [1]; 1 μM, day 8 post infection): 0,237 o. D.
HIV-1 antigen production as measured in antigen capture ELISA (HIV-1 [1]; [5]): 0,745 o. D.
HIV-1 antigen production as measured in antigen capture ELISA (HIV-1 [1]; [6]): 0,970 o. D.
HIV-1 antigen production as measured in antigen capture ELISA (HIV-1 [1]; 10 μM, day 1 post infection): 0,063 o. D.
HIV-1 antigen production as measured in antigen capture ELISA (HIV-1 [1]; 10 μM, day 2 post infection): 0,060 o. D.
HIV-1 antigen production as measured in antigen capture ELISA (HIV-1 [1]; 10 μM, day 3 post infection): 0,059 o. D.
HIV-1 antigen production as measured in antigen capture ELISA (HIV-1 [1]; 10 μM, day 4 post infection): 0,047 o. D.
HIV-1 antigen production as measured in antigen capture ELISA (HIV-1 [1]; 10 μM, day 5 post infection): 0,055 o. D.
HIV-1 antigen production as measured in antigen capture ELISA (HIV-1 [1]; 10 μM, day 6 post infection): 0,087 o. D.
HIV-1 antigen production as measured in antigen capture ELISA (HIV-1 [1]; 10 μM, day 7 post infection): 0,303 o. D.
HIV-1 antigen production as measured in antigen capture ELISA (HIV-1 [1]; 10 μM, day 8 post infection): 0,342 o. D.
HIV-1 antigen production as measured in antigen capture ELISA (HIV-1 [1]; [7]): 0,645 o. D.
HIV-1 antigen production as measured in antigen capture ELISA (HIV-1 [1]; [8]): 1,038 o. D.
HIV-1 antigen production as measured in antigen capture ELISA (HIV-1 [1]; 100 μM, day 1 post infection): 0,068 o. D.
HIV-1 antigen production as measured in antigen capture ELISA (HIV-1 [1]; 100 μM, day 2 post infection): 0,070 o. D.
HIV-1 antigen production as measured in antigen capture ELISA (HIV-1 [1]; 100 μM, day 3 post infection): 0,063 o. D.
HIV-1 antigen production as measured in antigen capture ELISA (HIV-1 [1]; 100 μM, day 4 post infection): 0,052 o. D.
HIV-1 antigen production as measured in antigen capture ELISA (HIV-1 [1]; 100 μM, day 5 post infection): 0,052 o. D.
HIV-1 antigen production as measured in antigen capture ELISA (HIV-1 [1]; 100 μM, day 6 post infection): 0,099 o. D.
HIV-1 antigen production as measured in antigen capture ELISA (HIV-1 [1]; 100 μM, day 7 post infection): 0,359 o. D.
HIV-1 antigen production as measured in antigen capture ELISA (HIV-1 [1]; 100 μM, day 8 post infection): 0,260 o. D.
HIV-1 antigen production as measured in antigen capture ELISA (HIV-1 [1]; [9]): 0,890 o. D.
HIV-1 antigen production as measured in antigen capture ELISA (HIV-1 [1]; [10]): 0,960 o. D.
HIV-1 antigen production as measured in antigen capture ELISA (HIV-1 [1]; 1000 μM, day 1 post infection): 0,076 o. D.
HIV-1 antigen production as measured in antigen capture ELISA (HIV-1 [1]; 1000 μM, day 2 post infection): 0,068 o. D.
HIV-1 antigen production as measured in antigen capture ELISA (HIV-1 [1]; 1000 μM, day 3 post infection): 0,050 o. D.
HIV-1 antigen production as measured in antigen capture ELISA (HIV-1 [1]; 1000 μM, day 4 post infection): 0,050 o. D.
HIV-1 antigen production as measured in antigen capture ELISA (HIV-1 [1]; 1000 μM, day 5 post infection): 0,063 o. D.
HIV-1 antigen production as measured in antigen capture ELISA (HIV-1 [1]; 1000 μM, day 6 post infection): 0,075 o. D.
HIV-1 antigen production as measured in antigen capture ELISA (HIV-1 [1]; 1000 μM, day 7 post infection): 0,279 o. D.
HIV-1 antigen production as measured in antigen capture ELISA (HIV-1 [1]; 1000 μM, day 8 post infection): 0,577 o. D.
HIV-1 antigen production as measured in antigen capture ELISA (HIV-1 [1]; [11]): 0,811 o. D.
HIV-1 antigen production as measured in antigen capture ELISA (HIV-1 [1]; [12]): 1,050 o. D.
Reverse Transkriptase Determination (HIV-1 [2]; 0,1 μM, day 7 post infection): 2099 epm/ml
Reverse Transkriptase Determination (HIV-1 [2]; 0,1 μM, day 8 post infection): 3091 epm/ml
Reverse Transkriptase Determination (HIV-1 [2]; [3]): 6180 epm/ml
Reverse Transkriptase Determination (HIV-1 [2]; [4]): 106830 epm/ml
Reverse Transkriptase Determination (HIV-1 [2]; 1 μM, day 7 post infection): 6105 epm/ml
Reverse Transkriptase Determination (HIV-1 [2]; 1 μM, day 8 post infection): 3006 epm/ml
Reverse Transkriptase Determination (HIV-1 [2]; [5]): 8474 epm/ml
Reverse Transkriptase Determination (HIV-1 [2]; [6]): 92020 epm/ml
Reverse Transkriptase Determination (HIV-1 [2]; 10 μM, day 7 post infection): 4614 epm/ml
Reverse Transkriptase Determination (HIV-1 [2]; 10 μM, day 8 post infection): 4188 epm/ml
Reverse Transkriptase Determination (HIV-1 [2]; [7]): 7187 epm/ml
Reverse Transkriptase Determination (HIV-1 [2]; [8]): 164920 epm/ml
Reverse Transkriptase Determination (HIV-1 [2]; 100 μM, day 7 post infection): 4033 epm/ml
Reverse Transkriptase Determination (HIV-1 [2]; 100 μM, day 8 post infection): 4418 epm/ml
Reverse Transkriptase Determination (HIV-1 [2]; [9]): 6575 epm/ml
Reverse Transkriptase Determination (HIV-1 [2]; [10]): 125290 epm/ml
Reverse Transkriptase Determination (HIV-1 [2]; 1000 μM, day 7 post infection): 3441 epm/ml
Reverse Transkriptase Determination (HIV-1 [2]; 1000 μM, day 8 post infection): 3159 epm/ml
Reverse Transkriptase Determination (HIV-1 [2]; [11]): 5503 epm/ml
Reverse Transkriptase Determination (HIV-1 [2]; [12]): 149020 epm/ml
